Like-named read-outs stand apart in the source and are kept apart here.
Experiments:
[1] = animal models, clinical trials; cited from earlier work
[2] = models of aging; cited from earlier work
Solubility = format: physicochemical; conditions: for Solubility in solvents: organic solvents, water; for solubility: read-out: Solubility: amount dissolved in 1.0 mL
Stability = format: physicochemical
Procedure: The compound should be kept at -20° C. under Argon.

[3] = cited from earlier work
[4] = test system: locomotor activity of mice; experiment: Locomotor activity study (dose-response of DHA-choline-induced locomotor depression); format: in vivo, male Swiss-Webster mice (Hsd:ND4); conditions: 20 min pretreatment
Procedure: A dose-response study of DHA-choline-induced locomotor depression was conducted using 40 Digiscan locomotor activity testing chambers (40.5×40.5×30.5 cm) housed in sets of two, within sound attenuating chambers. A panel of infrared beams (16 beams) and corresponding photo detectors were located in the horizontal direction along the sides of each activity chamber. A 7.5W incandescent light above each chamber provided dim illumination. Fans provided an 80-dB ambient noise level within the chamber. Separate groups of 8 non-habituated male Swiss-Webster mice (Hsd:ND4, aged 2-3 mo.) were injected via the intraperitoneal route (i.p.) with either vehicle or DHA-choline (0.5, 2.5, 5, 10, 20 or 40 mg/kg), 20 minutes prior to locomotor activity testing. In all studies, the total distance (cm traversed in the horizontal plane) was measured for 2 hours within 10 min periods.
The figures show the dose response data for the locomotor activity (Stewart et al., Psychopharmacol 60:281, 1979) of mice injected with different doses of the compound. The figures show average distance per 10 min as a function of time (FIG. 1) and dose (FIG. 2) 20 minutes following DHA-choline pretreatment. The period 0-30 min was selected for analysis of dose-response data because this is the time period in which DHA-choline produced maximal effects. […]

rat brain = experiment: Infarct volume after MCA occlusion of rat brain (triphenyltetrazolium chloride staining); format: in vivo; conditions: 50 mg/kg i.p. at three hours after initiation of the stroke event; n=5
Procedure: Two sets of experiments were carried out. In the first set, rats were administered with 50 mg/kg of DHA-choline i.p. at 30 minutes prior to occlusion of the middle cerebral artery of the left side of the brain using a standard highly reproducible animal model of stroke (Karpiak et al., J. Neurosci Res.30:512-520, 1991). Occlusion of the middle cerebral artery inhibits blood flow to a major portion of the left cortical and subcortical regions of the brain. After a two hour period, the occluded blood vessel was opened to allow reperfusion of the brain, and anesthesia was terminated. Each animal received additional doses of 50 mg/kg of DHA-choline 24 and 48 hours later.
The animals were sacrificed, perfused with formalin fixative, brains were sliced into seven 2 mm thick coronal sections, and stained with triphenyltetrazolium chloride (Watson et al., J. Neurosci. Methods 53:203-208, 1994). In this test, tissue that contains intact mitochondria stains red, whereas dead tissue with damaged mitochondria picks up no stain and remains white. Each unstained area on the left side of a section was measured and compared to the total area of the control non-occluded right side of the same section of the brain. The area of damaged (white) brain tissue cells was calculated as a percent of the intact right side of a section. […] (n=5 per group.) […]

C[N+](C)(C)CCOP(=O)(O)OP(=O)([O-])OC[C@H]1O[C@@H](n2ccc(N)nc2=O)[C@H](O)[C@@H]1O [CDP-choline, Cytidine 5'-diphosphocholine]
neuroprotective effect [1]: neuroprotective effect | effect on memory and learning deficits [2]: improves memory and learning deficits

CC/C=C\C/C=C\C/C=C\C/C=C\C/C=C\C/C=C\CCC(=O)OCCN(C)C [2-dimethylaminoethyl docosahexaenoate]
Solubility in solvents (Solubility): soluble in EtOAc, Et2 O, CH2 C2, CHCl3, EtOH insoluble in H2 O | Stability in air (appearance) (Stability; exposed in the air for several days): turns dark when exposed in the air for several days

CC/C=C\C/C=C\C/C=C\C/C=C\C/C=C\C/C=C\CCC(=O)O [DHA, cis-docosahexaenoic acid]
stability in the presence of oxygen [3]: can be unstable in the presence of oxygen

CC/C=C\C/C=C\C/C=C\C/C=C\C/C=C\C/C=C\CCC(=O)OCC[N+](C)(C)C [DHA-choline, Docosahexaenoyl Choline Iodide]
ED50 ([4]; Mus musculus, ip, 0-30 min period, maximal depressant activity = 0 cm/30 min, read-out: ID50 dose producing 1/2 maximal depressant activity (locomotor activity)): 12.9 mg/kg | time period of maximal effects ([4]; i.p.): 0 to 30 min | infarct volume relative to vehicle controls (rat brain): approximately 50% | solubility (Solubility; 1.0 mL ascorbic acid in saline with 0.02 mL detergent): 5500 µg/mL | solubility (Solubility; 10% albumin saline with detergent, 1.0 mL 10% albumin in saline with 0.01 mL detergent): 7800 µg/mL | Solubility in solvents (Solubility): soluble in CH2 Cl2, CHCl3, EtOAc, EtOH insoluble in hexanes, Et2 O | Stability in air (1H NMR analysis) (Stability; exposed in the air for 5 days): had not decomposed | Stability on long exposure to air (Stability; exposed in the air for too long): will decompose
